Reference: US20210221866A1, “PROTEASE-RESISTANT LIPIDATED GLP-1 ANALOGS” (MEDIMMUNE LIMITED, priority 2015, published 2021)
Where two headings read alike, the source gives them in different places. Numbered stars: 1 amine (or outer) side, 2 acyl side, 3 side chain; on linkers, the order of the positions; unused ones are H or OH. Square brackets hold non-standard residues; d marks the D form. Side chains are listed from the residue outwards. Peptide text beside a SMILES is read from it. * marks the point of attachment. γGlu = O=C(O)[C@H](CCC(=O)[*:2])N[*:1]; αMeF = C[C@](N)(Cc1ccccc1)C(=O)O; αMeK = C[C@](N)(CCCCN)C(=O)O; Lauroyl = CCCCCCCCCCCC(=O)*; αMeS = C[C@](N)(CO)C(=O)O; AEEA = NCCOCCOCC(=O)O; Aib = CC(C)(N)C(=O)O

Target: T1, human GLP-1 receptor (GLP-1R) (Homo sapiens, UniProt P43220)
T1 construct: expressed in transfected cells; host or cells: HEK293 cells or CHO cells
Experiment: cAMP assay, human GLP-1R cells
Format: cell-based
Conditions: Table 11, tris-lipidated peptides
Outline: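 Peptide-stimulated cAMP measured by two-step HTRF after a 30 min room-temperature incubation with receptor-expressing cells (hGLP-1R, hGIPR at 1×10^5 cells/ml; hGCGR at 2×10^5 cells/ml). Duplicate dilutions; EC50 from 4-parameter logistic fit of % Delta F.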

[1] = mean of n1 and n2, read-out: Primary assay EC50 Mean pM GLP-1R
[2] = replicate n1, read-out: Primary assay EC50 GLP-1R n1
[3] = replicate n2, read-out: Primary assay EC50 GLP-1R n2

T1 sequence (P43220 24-463): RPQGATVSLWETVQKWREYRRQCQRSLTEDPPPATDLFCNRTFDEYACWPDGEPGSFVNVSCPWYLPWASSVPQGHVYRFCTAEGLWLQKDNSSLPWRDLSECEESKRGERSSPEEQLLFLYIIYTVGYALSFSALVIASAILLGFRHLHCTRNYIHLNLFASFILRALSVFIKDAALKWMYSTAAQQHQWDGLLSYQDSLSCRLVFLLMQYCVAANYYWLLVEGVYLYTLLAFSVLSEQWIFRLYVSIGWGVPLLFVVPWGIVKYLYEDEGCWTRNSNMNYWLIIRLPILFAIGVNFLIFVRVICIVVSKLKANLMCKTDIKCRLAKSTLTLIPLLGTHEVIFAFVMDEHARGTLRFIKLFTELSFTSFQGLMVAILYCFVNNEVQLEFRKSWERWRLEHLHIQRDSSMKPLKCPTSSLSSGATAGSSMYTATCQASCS

| Structure (SMILES) | EC50 [1] [pM] | EC50 [2] [pM] | EC50 [3] [pM] |
| --- | --- | --- | --- |
| CCCCCCCCCCCC(=O)N[C@@H](CCC(=O)NCCOCCOCC(=O)NCCOCCOCC(=O)NCCCC[C@H](NC(=O)CNC(=O)[C@H](CCC(=O)O)NC(=O)[C@H](CC(C)C)NC(=O)[C@H](Cc1ccc(O)cc1)NC(=O)[C@H](CO)NC(=O)[C@H](CO)NC(=O)[C@H](CCCCNC(=O)COCCOCCNC(=O)COCCOCCNC(=O)CC[C@H](NC(=O)CCCCCCCCCCC)C(=O)O)NC(=O)[C@H](CC(=O)O)NC(=O)[C@H](CO)NC(=O)[C@@H](NC(=O)[C@](C)(Cc1ccccc1)NC(=O)[C@H](CO)NC(=O)CNC(=O)[C@H](CCC(=O)O)NC(=O)C(C)(C)NC(=O)[C@@H](N)Cc1c[nH]cn1)[C@@H](C)O)C(=O)N[C@@H](C)C(=O)N[C@@H](C)C(=O)N[C@@](C)(CCCCN)C(=O)N[C@@H](CCC(=O)O)C(=O)N[C@@H](Cc1ccccc1)C(=O)N[C@H](C(=O)N[C@@H](C)C(=O)N[C@@H](CCCCNC(=O)COCCOCCNC(=O)COCCOCCNC(=O)CC[C@H](NC(=O)CCCCCCCCCCC)C(=O)O)C(=O)N[C@H](C(=O)N[C@H](C(=O)N[C@@H](CCC(=O)O)C(=O)NCC(=O)NCC(N)=O)C(C)C)C(C)C)[C@@H](C)CC)C(=O)O [compound 456] (H-H[Aib]EGS[αMeF]TSDK([AEEA-AEEA-γGlu-Lauroyl])SSYLEGK([AEEA-AEEA-γGlu-Lauroyl])AA[αMeK]EFIAK([AEEA-AEEA-γGlu-Lauroyl])VVEGG-NH2; N-terminus assumed) | 170 | 116 | 224 |
| CCCCCCCCCCCC(=O)N[C@@H](CCC(=O)NCCOCCOCC(=O)NCCOCCOCC(=O)NCCCC[C@H](NC(=O)[C@H](C)NC(=O)[C@@H](NC(=O)[C@H](Cc1ccccc1)NC(=O)[C@H](CCC(=O)O)NC(=O)[C@](C)(CCCCN)NC(=O)[C@H](C)NC(=O)[C@H](CCCCNC(=O)COCCOCCNC(=O)COCCOCCNC(=O)CC[C@H](NC(=O)CCCCCCCCCCC)C(=O)O)NC(=O)[C@H](CCC(=O)O)NC(=O)CNC(=O)[C@H](CCC(=O)O)NC(=O)[C@H](CC(C)C)NC(=O)[C@H](Cc1ccc(O)cc1)NC(=O)[C@H](CO)NC(=O)[C@H](CO)NC(=O)[C@H](CCCCNC(=O)COCCOCCNC(=O)COCCOCCNC(=O)CC[C@H](NC(=O)CCCCCCCCCCC)C(=O)O)NC(=O)[C@H](CC(=O)O)NC(=O)[C@H](CO)NC(=O)[C@@H](NC(=O)[C@](C)(Cc1ccccc1)NC(=O)[C@H](CO)NC(=O)CNC(=O)[C@H](CCC(=O)O)NC(=O)C(C)(C)NC(=O)[C@@H](N)Cc1c[nH]cn1)[C@@H](C)O)[C@@H](C)CC)C(=O)N[C@H](C(=O)N[C@H](C(=O)N[C@@H](CCC(=O)O)C(=O)NCC(=O)NCC(N)=O)C(C)C)C(C)C)C(=O)O [compound 457] (H-H[Aib]EGS[αMeF]TSDK([AEEA-AEEA-γGlu-Lauroyl])SSYLEGEK([AEEA-AEEA-γGlu-Lauroyl])A[αMeK]EFIAK([AEEA-AEEA-γGlu-Lauroyl])VVEGG-NH2; N-terminus assumed) | 142 | 127 | 156 |
| CCCCCCCCCCCC(=O)N[C@@H](CCC(=O)NCCOCCOCC(=O)NCCOCCOCC(=O)NCCCC[C@H](NC(=O)[C@H](C)NC(=O)[C@@H](NC(=O)[C@H](Cc1ccccc1)NC(=O)[C@H](CCC(=O)O)NC(=O)[C@](C)(CCCCN)NC(=O)[C@H](C)NC(=O)[C@H](C)NC(=O)[C@H](CCC(=O)O)NC(=O)[C@H](CCCCNC(=O)COCCOCCNC(=O)COCCOCCNC(=O)CC[C@H](NC(=O)CCCCCCCCCCC)C(=O)O)NC(=O)[C@H](CCC(=O)O)NC(=O)[C@H](CC(C)C)NC(=O)[C@H](CCCCNC(=O)COCCOCCNC(=O)COCCOCCNC(=O)CC[C@H](NC(=O)CCCCCCCCCCC)C(=O)O)NC(=O)[C@H](CO)NC(=O)[C@](C)(CO)NC(=O)[C@@H](NC(=O)[C@H](CC(=O)O)NC(=O)[C@H](CO)NC(=O)[C@@H](NC(=O)[C@](C)(Cc1ccccc1)NC(=O)[C@H](CO)NC(=O)CNC(=O)[C@H](CCC(=O)O)NC(=O)C(C)(C)NC(=O)[C@@H](N)Cc1c[nH]cn1)[C@@H](C)O)C(C)C)[C@@H](C)CC)C(=O)N[C@H](C(=O)N[C@H](C(=O)N[C@@H](CCC(=O)O)C(=O)NCC(=O)NCC(N)=O)C(C)C)C(C)C)C(=O)O [compound 463] (H-H[Aib]EGS[αMeF]TSDV[αMeS]SK([AEEA-AEEA-γGlu-Lauroyl])LEK([AEEA-AEEA-γGlu-Lauroyl])EAA[αMeK]EFIAK([AEEA-AEEA-γGlu-Lauroyl])VVEGG-NH2; N-terminus assumed) | 82 | 69.5 | 94.4 |
| CCCCCCCCCCCC(=O)N[C@@H](CCC(=O)NCCOCCOCC(=O)NCCOCCOCC(=O)NCCCC[C@H](NC(=O)CNC(=O)[C@H](CCC(=O)O)NC(=O)[C@H](CC(C)C)NC(=O)[C@H](Cc1ccc(O)cc1)NC(=O)[C@H](CO)NC(=O)[C@H](CO)NC(=O)[C@H](CCCCNC(=O)COCCOCCNC(=O)COCCOCCNC(=O)CC[C@H](NC(=O)CCCCCCCCCCC)C(=O)O)NC(=O)[C@H](CC(=O)O)NC(=O)[C@H](CO)NC(=O)[C@@H](NC(=O)[C@](C)(Cc1ccccc1)NC(=O)[C@H](CO)NC(=O)CNC(=O)[C@H](CCC(=O)O)NC(=O)C(C)(C)NC(=O)[C@@H](N)Cc1c[nH]cn1)[C@@H](C)O)C(=O)N[C@@H](C)C(=O)N[C@@H](C)C(=O)N[C@@](C)(CCCCN)C(=O)N[C@@H](CCC(=O)O)C(=O)N[C@@H](Cc1ccccc1)C(=O)N[C@H](C(=O)N[C@@H](C)C(=O)N[C@@H](Cc1ccccc1)C(=O)N[C@@H](CCCCNC(=O)COCCOCCNC(=O)COCCOCCNC(=O)CC[C@H](NC(=O)CCCCCCCCCCC)C(=O)O)C(=O)N[C@H](C(=O)N[C@@H](CCC(=O)O)C(=O)NCC(=O)NCC(N)=O)C(C)C)[C@@H](C)CC)C(=O)O [compound 472] (H-H[Aib]EGS[αMeF]TSDK([AEEA-AEEA-γGlu-Lauroyl])SSYLEGK([AEEA-AEEA-γGlu-Lauroyl])AA[αMeK]EFIAFK([AEEA-AEEA-γGlu-Lauroyl])VEGG-NH2; N-terminus assumed) | 287 |  |  |
| CCCCCCCCCCCC(=O)N[C@@H](CCC(=O)NCCOCCOCC(=O)NCCOCCOCC(=O)NCCCC[C@H](NC(=O)[C@H](CC(=O)O)NC(=O)[C@H](CO)NC(=O)[C@@H](NC(=O)[C@](C)(Cc1ccccc1)NC(=O)[C@H](CO)NC(=O)CNC(=O)[C@H](CCC(=O)O)NC(=O)C(C)(C)NC(=O)[C@@H](N)Cc1c[nH]cn1)[C@@H](C)O)C(=O)N[C@@H](CO)C(=O)N[C@@H](CO)C(=O)N[C@@H](Cc1ccc(O)cc1)C(=O)N[C@@H](CC(C)C)C(=O)N[C@@H](CCC(=O)O)C(=O)NCC(=O)N[C@@H](CCC(=O)O)C(=O)N[C@@H](C)C(=O)N[C@@H](C)C(=O)N[C@@](C)(CCCCN)C(=O)N[C@@H](CCCCNC(=O)COCCOCCNC(=O)COCCOCCNC(=O)CC[C@H](NC(=O)CCCCCCCCCCC)C(=O)O)C(=O)N[C@@H](Cc1ccccc1)C(=O)N[C@H](C(=O)N[C@@H](C)C(=O)N[C@@H](Cc1ccccc1)C(=O)N[C@@H](CCCCNC(=O)COCCOCCNC(=O)COCCOCCNC(=O)CC[C@H](NC(=O)CCCCCCCCCCC)C(=O)O)C(=O)N[C@H](C(=O)N[C@@H](CCC(=O)O)C(=O)NCC(=O)NCC(N)=O)C(C)C)[C@@H](C)CC)C(=O)O [compound 474] (H-H[Aib]EGS[αMeF]TSDK([AEEA-AEEA-γGlu-Lauroyl])SSYLEGEAA[αMeK]K([AEEA-AEEA-γGlu-Lauroyl])FIAFK([AEEA-AEEA-γGlu-Lauroyl])VEGG-NH2) | 290 |  |  |
| CCCCCCCCCCCC(=O)N[C@@H](CCC(=O)NCCOCCOCC(=O)NCCOCCOCC(=O)NCCCC[C@H](NC(=O)CNC(=O)[C@H](CCC(=O)O)NC(=O)[C@H](CC(C)C)NC(=O)[C@H](CCCCNC(=O)COCCOCCNC(=O)COCCOCCNC(=O)CC[C@H](NC(=O)CCCCCCCCCCC)C(=O)O)NC(=O)[C@H](CO)NC(=O)[C@](C)(CO)NC(=O)[C@@H](NC(=O)[C@H](CC(=O)O)NC(=O)[C@H](CO)NC(=O)[C@@H](NC(=O)[C@](C)(Cc1ccccc1)NC(=O)[C@H](CO)NC(=O)CNC(=O)[C@H](CCC(=O)O)NC(=O)C(C)(C)NC(=O)[C@@H](N)Cc1c[nH]cn1)[C@@H](C)O)C(C)C)C(=O)N[C@@H](C)C(=O)N[C@@H](C)C(=O)N[C@@](C)(CCCCN)C(=O)N[C@@H](CCC(=O)O)C(=O)N[C@@H](Cc1ccccc1)C(=O)N[C@H](C(=O)N[C@@H](C)C(=O)N[C@@H](Cc1ccccc1)C(=O)N[C@@H](CCCCNC(=O)COCCOCCNC(=O)COCCOCCNC(=O)CC[C@H](NC(=O)CCCCCCCCCCC)C(=O)O)C(=O)N[C@H](C(=O)N[C@@H](CCC(=O)O)C(=O)NCC(=O)NCC(N)=O)C(C)C)[C@@H](C)CC)C(=O)O [compound 480] (H-H[Aib]EGS[αMeF]TSDV[αMeS]SK([AEEA-AEEA-γGlu-Lauroyl])LEGK([AEEA-AEEA-γGlu-Lauroyl])AA[αMeK]EFIAFK([AEEA-AEEA-γGlu-Lauroyl])VEGG-NH2; N-terminus assumed) | 57.5 |  |  |
| CCCCCCCCCCCC(=O)N[C@@H](CCC(=O)NCCOCCOCC(=O)NCCOCCOCC(=O)NCCCC[C@H](NC(=O)[C@H](CCC(=O)O)NC(=O)CNC(=O)[C@H](CCC(=O)O)NC(=O)[C@H](CC(C)C)NC(=O)[C@H](CCCCNC(=O)COCCOCCNC(=O)COCCOCCNC(=O)CC[C@H](NC(=O)CCCCCCCCCCC)C(=O)O)NC(=O)[C@H](CO)NC(=O)[C@](C)(CO)NC(=O)[C@@H](NC(=O)[C@H](CC(=O)O)NC(=O)[C@H](CO)NC(=O)[C@@H](NC(=O)[C@](C)(Cc1ccccc1)NC(=O)[C@H](CO)NC(=O)CNC(=O)[C@H](CCC(=O)O)NC(=O)C(C)(C)NC(=O)[C@@H](N)Cc1c[nH]cn1)[C@@H](C)O)C(C)C)C(=O)N[C@@H](C)C(=O)N[C@@](C)(CCCCN)C(=O)N[C@@H](CCC(=O)O)C(=O)N[C@@H](Cc1ccccc1)C(=O)N[C@H](C(=O)N[C@@H](C)C(=O)N[C@@H](Cc1ccccc1)C(=O)N[C@@H](CCCCNC(=O)COCCOCCNC(=O)COCCOCCNC(=O)CC[C@H](NC(=O)CCCCCCCCCCC)C(=O)O)C(=O)N[C@H](C(=O)N[C@@H](CCC(=O)O)C(=O)NCC(=O)NCC(N)=O)C(C)C)[C@@H](C)CC)C(=O)O [compound 481] (H-H[Aib]EGS[αMeF]TSDV[αMeS]SK([AEEA-AEEA-γGlu-Lauroyl])LEGEK([AEEA-AEEA-γGlu-Lauroyl])A[αMeK]EFIAFK([AEEA-AEEA-γGlu-Lauroyl])VEGG-NH2) | 143 |  |  |
